{"source": "paper PMC6790694", "about": "“Selective Modification of Ribosomally Synthesized and Post‐Translationally Modified Peptides (RiPPs) through Diels–Alder Cycloadditions on Dehydroalanine Residues” (Chemistry (Weinheim an Der Bergstrasse, Germany), 2019)", "key": {"E. faecalis (ATCC29212)": {"tested_on": "E. faecalis (ATCC29212)", "experiment": "MIC assay, broth microdilution, E. faecalis", "format": "cell-based, Enterococcus faecalis", "settings": "supplement table SI-21; E. faecalis LMG 08222 (ATCC29212); broth microdilution in CAMHB + 3 % v/v lysed horse blood, 37 °C, 20 h; tested three times in triplicates", "method": "(§1) Moreover, variations in activity towards both strains and between the different site‐ and endo/exo isomers remained limited to a factor of 4. The activity of 3 also very closely resembles that of thiostrepton, showing that even removing part of the tail region has little effect on its activity.\n(§2) Biological Activity Assays\n(§3) Preparation of antimicrobial agents\n(§4) Thiostrepton and its variants were dissolved and diluted in DMSO to a concentration of 640 µg/ml, and stored at -20 °C. Before use, they were diluted 20 fold in Mueller Hinton Broth 2 (CAMHB; cation-adjusted, Sigma-Aldrich).\n(§5) Dilution of the thiostrepton compounds in CAMHB was done in 50 % volume steps to prevent precipitation.\n(§6) Vancomycin for the quality controls was dissolved in MQ to a concentration of 256 mg/ml and stored at -20 °C.\n(§7) It was diluted in CAMHB to a final concentration of 256 µg/ml before use.\n(§8) Strains and growth conditions\n(§9) The MIC values of thiostrepton and its variants were determined for Staphylococcus aureus LMG 10147 […]\n(§10) from glycerol stocks on LB (Formedium™) and GM17 (Difco™) plates respectively. […]\n(§11) Well 11, lacking the test compound, functions as a growth control and well 12 as a sterility control. […] To ensure MIC data reliability, MIC values for vancomycin were determined for every series of tests performed, as described […]"}, "S. aureus (ATCC29213)": {"tested_on": "S. aureus (ATCC29213)", "experiment": "MIC assay, broth microdilution, S. aureus", "format": "cell-based, Staphylococcus aureus", "settings": "supplement table SI-21; S. aureus LMG 10147 (ATCC29213); broth microdilution in CAMHB, 37 °C, 20 h; tested three times in triplicates", "method": "as §1, §2, §3, §4, §5, §6, §7, §8, §9, §10, §11"}}}
{"smiles": "C=C(NC(=O)C(=C)NC(=O)c1csc(C2=N[C@@H]3c4csc(n4)[C@H]4NC(=O)c5csc(n5)[C@H]([C@](C)(O)[C@@H](C)O)NC(=O)[C@H]5CSC(=N5)/C(=C/C)NC(=O)[C@H]([C@@H](C)O)NC(=O)c5csc(n5)[C@]3(CC2)NC(=O)[C@H](C)NC(=O)C(=C)NC(=O)[C@H](C)NC(=O)[C@H]([C@@H](C)CC)N[C@@H]2C=Cc3c([C@H](C)O)cc(nc3[C@H]2O)C(=O)O[C@@H]4C)n1)C(N)=O", "note": "[Thiostrepton, thiostrepton]", "values": [{"measurement": "MIC against E. faecalis (VSE)", "setting": "E. faecalis (ATCC29212)", "result": 0.5, "unit": "µg/mL"}, {"measurement": "MIC against S. aureus (MSSA)", "setting": "S. aureus (ATCC29213)", "result": 0.5, "unit": "µg/mL"}]}
